Source: patent US11401278B2, “Macrocyclic indole derivatives” (The Broad Institute, Inc., priority 2017, dated 2022)
Where “and” joins values, the source holds several entries; their conditions need not be identical. Identical values can stand only once. Counter-ions that a name gives are not always drawn. Like-named read-outs stand apart in the source and are kept apart here.

Experiments:
HMC-1-8 = assay: Antiproliferation assay (Assay 7), HMC-1-8; format: cell-based; settings: CellTiter-Glo, several values per example, read-out: Antiproli HMC-1-8 [M] IC50
In short: (§1)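 Proliferation over 72 h at 37° C was assessed by luminescent cell viability reagent, referenced to a day 0 plate.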

BCL-XL = BCL-XL (Homo sapiens (Human), UniProt Q07817); assay: Protein-protein interaction assay BCL-XL/Bad BH3 peptide (BCL-XL assay, TR-FRET); format: binding; settings: His-BCL-XL / Bad BH3 peptide, median
Experimental: Assay 2 Protein-Protein Interaction Assay: BCL-XL/Bad BH3 Peptide (BCL-XL Assay)
The dose-dependent inhibition by the compounds described in this invention of the interaction between BCL-XL and the BH3 domain of Bad (both human) was determined using a steady state binding competition assay with time-resolved fluorescence energy transfer (TR-FRET) readout. For that purpose BCL-XL (amino acids 1-212, C-terminal fused to a hexahistidine (6×His) tag (SEQ ID 3) and a synthetic Bad BH3-derived peptide of sequence Biotin-PEG2-PEG2-NLWAAQRYGRELRR-Nle-SDEFVDSFKK-amide (SEQ ID 4) served as protein receptor and tracer ligand respectively. The recombinant BCL-XL protein (expressed in E. coli) was purchased from BPS Bioscience (San Diego, Calif., USA). The Bad BH3-derived peptide can be obtained from e.g. Biosyntan (Berlin, Germany).
In the assay 11 different concentrations of each compound (0.1 nM, 0.33 nM, 1.1 nM, 3.8 nM, 13 nM, 44 nM, 0.15 μM, 0.51 μM, 1.7 μM, 5.9 μM and 20 μM) were typically measured as duplicates in the same microtiter plate. For that, 100-fold concentrated DMSO solutions were prepared by serial dilutions (1:3.4) of a 2 mM stock solution in a clear, 384-well microtiter plate (Greiner Bio-One, Frickenhausen, Germany). From there, 50 nl were transferred in a dark test plate (Greiner Bio-One, Frickenhausen, Germany). The assay was initiated by addition of 2 μl of a 2.5-fold concentrated His-BCL-XL solution (usually for a 1 nM end concentration in 5 μl reaction volume) in aqueous assay buffer [50 mM Tris/HCl pH 7, 100 mM sodium chloride (NaCl), 50 mM potassium fluoride (KF), 0.005% Tween-20, 2 mM DTT, 0.1% bovine gamma globulin (BGG)] to the compounds in the assay plate. This was followed by a 10-minute incubation step at 22° C. for pre-equilibration of the putative complex between His-BCL-XL and the compounds. After that, 3 μl of a 1.67-fold concentrated solution (in assay buffer) consisting of Bad BH3-derived peptide (1 nM end concentration) and TR-FRET detection reagents [1.67 nM anti-His-Eu cryptate and 1.67 nM streptavidin-XL665 (both from Cisbio Bioassays, Codolet, France)], were added.
The mixture was incubated in the dark for one hour at 22° C. and then overnight at 4° C. The formation of BCL-XL/Bad complexes was determined by measuring the resonance energy transfer of the anti-His- Eu-cryptate antibody to the streptavidin-XL665 present in the reaction. For that purpose, the fluorescence emission at 620 nm and 665 nm after excitation at 330-350 nm was measured in a TR-FRET measuring instrument, for instance a Rubystar or a Pherastar (both from BMG Lab Technologies, Offenburg, Germany) or a Viewlux (Perkin-Elmer). The ratio of the emission at 665 nm and at 622 nm was used as indicator of the amount of BCL-XL/Bad complexes present.
The resulting data (ratio) were normalized, taking 0% inhibition as the mean value of control measurements (usually 32 data points) where all reagents were included. In this case 50 nl DMSO were used instead of compounds. A 100% inhibition corresponded to the mean value of control measurements (usually 32 data points) where all reagents except BCL-XL were included. IC50 values were determined by regression analysis based on a 4 parameter equation (minimum, maximum, IC50, Hill; Y=Max+(Min−Max)/(1+(X/IC50)^HiII) using the Screener Software (Genedata).

MV-4-11 = assay: Antiproliferation assay (Assay 7), MV-4-11; format: cell-based; settings: CellTiter-Glo, several values per example, read-out: Antiproli MV-4-11 [M] IC50
In short: as §1

Chain of BCL-XL (Q07817 other isoform, or with tags, fused parts or gaps): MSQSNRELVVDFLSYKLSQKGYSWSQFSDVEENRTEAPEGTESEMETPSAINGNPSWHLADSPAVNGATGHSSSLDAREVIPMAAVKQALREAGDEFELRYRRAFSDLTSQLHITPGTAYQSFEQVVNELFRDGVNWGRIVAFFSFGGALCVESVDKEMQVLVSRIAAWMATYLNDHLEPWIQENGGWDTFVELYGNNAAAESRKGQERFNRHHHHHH

Row | Structure (SMILES) | IC50 (HMC-1-8; 72 hours) | IC50 (BCL-XL) | IC50 (MV-4-11; 72 hours) | IC50 (MV-4-11; Homo sapiens, MV4-11, 72 h) | IC50 (HMC-1-8; 72 h)
1 | Cc1c2c(nn1C)CNS(=O)(=O)CCCn1c(C(=O)O)c(CCCOc3cccc4cc(F)ccc34)c3ccc(Cl)c-2c31 (single isomer, unassigned; enantiomer 2) [Example 52, 4-chloro-7-{3-[(6-fluoronaphthalen-1-yl)oxy]propyl}-2,3-dimethyl-13,13-dioxo-10,11,12,13,14,15-hexahydro-2H-13lambda^6-pyrazolo[3′,4′:4,5][1,2,8]thiadiazacycloundecino[6,7,8-hi]indole-8-carboxylic acid (Enantiomer 2)] | > 3.3e-05 M | 16000 nM |  |  | 
2 | CCNCC.CCc1c2c(nn1C)C(CCN1CCOCC1)N(C)S(=O)(=O)CCCn1c(C(=O)O)c(CCCOc3cccc4cc(F)ccc34)c3ccc(Cl)c-2c31 (single isomer, unassigned; enantiomer 2) [Example 76, 4-chloro-3-ethyl-7-{3-[(6-fluoronaphthalen-1-yl)oxy]propyl}-2,14-dimethyl-15-[2-(morpholin-4-yl)ethyl]-13,13-dioxo-10,11,12,13,14,15-hexahydro-2H-13lambda^6-pyrazolo[3′,4′:4,5][1,2,8]thiadiazacycloundecino[6,7,8-hi]indole-8-carboxylic acid-N-ethylethanamine Salt (Enantiomer 2)] | 3.5e-07 M and 4.1e-07 M |  |  |  | 
3 | CCc1c2c(nn1C)C(CCN1CCOCC1)N(C)S(=O)(=O)CCCn1c(C(=O)O)c(CCCOc3cccc4cc(F)ccc34)c3ccc(Cl)c-2c31 (racemic) [Example 73, (rac)-(4-chloro-3-ethyl-7-{3-[(6-fluoronaphthalen-1-yl)oxy]propyl}-2,14-dimethyl-15-[2-(morpholin-4-yl)ethyl]-13,13-dioxo-10,11,12,13,14,15-hexahydro-2H-13lambda^6-pyrazolo[3′,4′:4,5][1,2,8]thiadiazacycloundecino[6,7,8-hi]indole-8-carboxylic acid (Racemate 1)] | 1e-06 M |  |  |  | 
4 | CCc1c2c(nn1C)CN(CCN1CCCCC1)S(=O)(=O)CCCn1c(C(=O)O)c(CCCOc3cccc4ccccc34)c3cccc-2c31 (racemic) [Example 14, (rac)-12-Ethyl-11-methyl-1-(3-(naphthalen-1-yloxy)propyl)-8-(2-(piperidin-1-yl)ethyl)-4,5,6,8,9,11-hexahydropyrazolo[3′,4′:4,5][1,2,8]thiadiazacycloundecino[6,7,8-hi]indole-2-carboxylic acid 7,7-dioxide 2,2,2-trifluoroacetic acid salt] |  | > 20000 nM | 1.28e-05 M | 1.18e-05 M | 
5 | Cc1c2c(nn1C)CN(C)S(=O)(=O)CCCn1c(C(=O)O)c(CCCOc3cccc4c3CCCC4)c3ccc(F)c-2c31 (racemic) [Example 29, (rac)-13-Fluoro-8,11,12-trimethyl-1-(3-((5,6,7,8-tetrahydronaphthalen-1-yl)oxy)propyl)-5,6,9,11-tetrahydro-4H,8H-pyrazolo[3′,4′:4,5][1]thia[2,8]diazacycloundecino[6,7,8-hi]indole-2-carboxylic acid 7,7-dioxide] |  | > 20000 nM |  | 5.86e-06 M | 
6 | CCc1c2c(nn1C)CN(C)S(=O)(=O)CCCn1c(C(=O)O)c(CCCOc3cccc4c3CCC4)c3ccc(Cl)c-2c31 [Example 21, (rac)-13-Chloro-1-(3-((2,3-dihydro-1H-inden-4-yl)oxy)propyl)-12-ethyl-8,11-dimethyl-5,6,9,11-tetrahydro-4H,8H-pyrazolo[3′,4′:4,5][1]thia[2,8]diazacycloundecino[6,7,8-hi]indole-2-carboxylic acid 7,7-dioxide] |  | > 20000 nM |  | 2.1e-06 M | 
7 | CCc1c2c(nn1C)CN(CC)S(=O)(=O)CCCn1c(C(=O)O)c(CCCOc3cccc4cc(F)ccc34)c3ccc(Cl)c-2c31 (racemic) [Example 56, (rac)-4-chloro-3,14-diethyl-7-{3-[(6-fluoro-1-naphthyl)oxy]propyl}-2-methyl-11,12,14,15-tetrahydro-2H,10H-pyrazolo[3′,4′:4,5][1,2,8]thiadiazacycloundecino[6,7,8-hi]indole-8-carboxylic acid 13,13-dioxide] | 2.3e-06 M and 2.7e-06 M |  |  |  | 1.5e-06 M
8 | CCc1c2c(nn1C)CN(C)S(=O)(=O)CCCn1c(C(=O)O)c(CCCOc3cccc4c3CCCC4)c3ccc(Cl)c-2c31 [Example 23, (rac)-13-Chloro-12-ethyl-8,11-dimethyl-1-(3-((5,6,7,8-tetrahydronaphthalen-1-yl)oxy)propyl)-4,5,6,8,9,11-hexahydropyrazolo[3′,4′:4,5][1,2,8]thiadiazacycloundecino[6,7,8-hi]indole-2-carboxylic acid 7,7-dioxide] |  | > 20000 nM |  | 1.96e-06 M | 
9 | Cc1cc(OCCCc2c(C(=O)O)n3c4c(c(F)ccc24)-c2c(nn(C)c2C)CN(C)S(=O)(=O)CCC3)cc(C)c1Cl (racemic) [Example 28, (rac)-1-(3-(4-Chloro-3,5-dimethylphenoxy)propyl)-13-fluoro-8,11,12-trimethyl-5,6,9,11-tetrahydro-4H,8H-pyrazolo[3′,4′:4,5][1]thia[2,8]diazacycloundecino[6,7,8-hi]indole-2-carboxylic acid 7,7-dioxide] |  | > 20000 nM |  | 7.54e-06 M | 
10 | CCc1c2c(nn1C)CN(C)S(=O)(=O)CCCn1c(C(=O)O)c(CCCOc3cc(C)c(Cl)c(C)c3)c3ccc(Cl)c-2c31 [Example 22, (rac)-13-Chloro-1-(3-(4-chloro-3,5-dimethylphenoxy)propyl)-12-ethyl-8,11-dimethyl-4,5,6,8,9,11-hexahydropyrazolo[3′,4′:4,5][1,2,8]thiadiazacycloundecino[6,7,8-hi]indole-2-carboxylic acid 7,7-dioxide] |  | > 20000 nM |  | 2.41e-06 M | 
11 | CCc1c2c(nn1C)CN(C1CC1)S(=O)(=O)CCCn1c(C(=O)O)c(CCCOc3cccc4cc(F)ccc34)c3ccc(Cl)c-2c31 (single isomer, unassigned; enantiomer 1) [Example 54, (−)-4-chloro-14-cyclopropyl-3-ethyl-7-{3-[(6-fluoronaphthalen-1-yl)oxy]propyl}-2-methyl-13,13-dioxo-10,11,12,13,14,15-hexahydro-2H-13lambda^6-pyrazolo[3′,4′:4,5][1,2,8]thiadiazacycloundecino[6,7,8-hi]indole-8-carboxylic acid N-ethylethanamine Salt (Enantiomer 1)] | 2.2e-06 M and 2.5e-06 M |  |  |  | 
12 | CCc1c2c(nn1C)CN(C)S(=O)(=O)CCCn1c(C(=O)O)c(CCCOc3cccc4ccccc34)c3ccc(F)c-2c31 (racemic) [Example 31, (rac)-12-Ethyl-13-fluoro-8,11-dimethyl-1-(3-(naphthalen-1-yloxy)propyl)-5,6,9,11-tetrahydro-4H,8H-pyrazolo[3′,4′:4,5][1]thia[2,8]diazacycloundecino[6,7,8-hi]indole-2-carboxylic acid 7,7-dioxide] |  | > 20000 nM | 5.51e-06 M | 4.7e-06 M | 
13 | CCc1c2c(nn1C)CN(CC)S(=O)(=O)CCCn1c(C(=O)O)c(CCCOc3cccc4cc(F)ccc34)c3ccc(Cl)c-2c31 (single isomer, unassigned; enantiomer 1) [Example 57, (+)-4-chloro-3,14-diethyl-7-{3-[(6-fluoronaphthalen-1-yl)oxy]propyl}-2-methyl-13,13-dioxo-10,11,12,13,14,15-hexahydro-2H-13lambda^6-pyrazolo[3′,4′:4,5][1,2,8]thiadiazacycloundecino[6,7,8-hi]indole-8-carboxylic acid N-ethylethanamine Salt (Enantiomer 1)] | 9.1e-07 M and 1.3e-06 M |  |  |  | 
